Where “and” joins values, the source holds several entries; their conditions need not be identical. Equal entries are not always repeated.

This note sets out measurements from patent publication US20130102463A1, “Herbicidal Compositions” (BASF SE, priority 2010, published 2013).

Experiment [1] relates to fleabane (Erigeron canadiensis, ERICA). The experiment can be described thus: Example 1: herbicidal action; whole plants sprayed with B, PPO inhibitor applied as local leaf treatment, high light. It counts as in vivo, Erigeron canadensis.
For experiment [2], the system named is moringglory (Pharbitis purpurea, PHBPU). The experiment is described as above. It counts as in vivo. The note with it: rate 2000 g/ha (B alone).
Experiment [3] concerns fleabane (Erigeron canadiensis, ERICA). Put plainly: Example 2: herbicidal action; whole plants sprayed with A and B in the spraying chamber, high light. It counts as in vivo, Erigeron canadensis. The note with it: rate 10 g/ha (A alone).
Experiment [4] has as its system morningglory (Pharbitis purpurea, PHBPU). Described as above. It counts as in vivo.
The test system of experiment [5] is velvet leave (Abutilon theophrasti, ABUTH). The description is as above. It counts as in vivo.
Experiment [6] has as its system fleabane (Erigeron canadiensis). The experiment can be described thus: Example 3: herbicidal action; whole plants sprayed with B, component A applied as local leaf treatment, high light. The note with it: ERICA, rate 500 g/ha (B alone). It counts as in vivo, Erigeron canadensis.
Setting [7] is: 10 DAT, rate 1000 g/ha (B alone).
Where [8] appears, read: 42 DAT, rate 1000 g/ha (B alone).
Setting [9] is: 11 DAT, rate 500 g/ha (B alone).
Setting [10] is: walk-in chamber, 4 DAT, rate 20 g/ha (A alone).
Where [11] appears, read: walk-in chamber, 14 DAT, rate 20 g/ha (A alone).

For `O=C(c1ccccc1)c1ccc(O)cc1O` [B.1.6.3, 2,4-dihydroxybenzo-phenone], the “% damage” value was found to be 13% in experiment [1] (setting [7]), 0% in experiment [1] (setting [8]), 39% in experiment [2] (4 DAT) and 20% in experiment [2] (10 DAT).

Consider `CCOC(=O)COc1ncccc1Oc1cc(-n2c(=O)cc(C(F)(F)F)n(C)c2=O)c(F)cc1Cl` [A.1.2, ethyl[3-[2-chloro-4-fluoro-5-(1-methyl-6-trifluoromethyl-2,4-dioxo-1,2,3,4-tetrahydropyrimidin-3-yl)phenoxy]-2-pyridyloxy]acetate], for which the “% damage” value in experiment [3] (walk-in chamber, 4 DAT) came out at 95%; in experiment [3] (walk-in chamber, 14 DAT), 80%; in experiment [4] (walk-in chamber, 4 DAT, rate 0.5 g/ha (A alone)), 99%; in experiment [4] (walk-in chamber, 14 DAT, rate 0.5 g/ha (A alone)), 96%.

In the case of `CCOC(=O)C(Cl)Cc1cc(-n2nc(C)n(C(F)F)c2=O)c(F)cc1Cl` (stereo not drawn) [A.2.1, carfentrazone-ethyl], the “% damage” value in experiment [3] (growth chamber, 4 DAT) was found to be 57%; in experiment [3] (growth chamber, 14 DAT), 47%; in experiment [4] (growth chamber, 4 DAT, rate 0.5 g/ha (A alone)), 94%; in experiment [4] (growth chamber, 14 DAT, rate 0.5 g/ha (A alone)), 83%.

As to `C#CCN1C(=O)COc2cc(F)c(-n3c(=O)n(C)c(=S)n(C)c3=O)cc21` [A.5.1, 3-[7-fluoro-3-oxo-4-(prop-2-ynyl)-3,4-dihydro-2H-benzo[1,4]oxazin-6-yl]-1,5-dimethyl-6-thioxo-[1,3,5]triazinan-2,4-dione], the “% damage” value stood at 92% in experiment [4] (walk-in chamber, 4 DAT, rate 0.125 g/ha (A alone)); 70% in experiment [4] (walk-in chamber, 14 DAT, rate 0.125 g/ha (A alone)); 94% in experiment [5] (walk-in chamber, 4 DAT, rate 1 g/ha (A alone)); 55% in experiment [5] (walk-in chamber, 14 DAT, rate 1 g/ha (A alone)).

Consider `C#CCN1C(=O)COc2cc(F)c(N3C(=O)C4=C(CCCC4)C3=O)cc21` [A.5.2, flumioxazin], for which the “% damage” value was found to be 98% in experiment [5] (growth chamber, 4 DAT, rate 2 g/ha (A alone)) and 98% in experiment [5] (growth chamber, 14 DAT, rate 2 g/ha (A alone)).

In the case of `COc1ccc(C(=O)c2ccccc2)c(O)c1` [B.1.6.4, 2-hydroxy-4-methoxybenzophenone], the “% damage” value came to 0% in experiment [6] (2 DAT); 0% in experiment [6] (8 DAT); 5% in experiment [1] (5 DAT, rate 500 g/ha (B alone)); 0% in experiment [1] (setting [7]); 5% in experiment [1] (setting [9]); 13% in experiment [1] (setting [8]). Besides, the “% damage” value in experiment [2] (4 DAT) was determined as 15%; in experiment [2] (10 DAT), 10%.

For `CCOc1cc(Oc2ccc(C(F)(F)F)cc2Cl)ccc1[N+](=O)[O-]` [A.4.1, oxyfluorofen], the “% damage” value was 94% in experiment [4] (walk-in chamber, 4 DAT, rate 5 g/ha (A alone)); 99% in experiment [4] (setting [10]); 83% in experiment [4] (walk-in chamber, 14 DAT, rate 5 g/ha (A alone)); 95% in experiment [4] (setting [11]); 93% in experiment [5] (setting [10]); 80% in experiment [5] (setting [11]).

`CCCCCCOC(=O)c1ccccc1C(=O)c1ccc(N(CC)CC)cc1O` [B.1.6.1, 2-(4-diethylamino-2-hydroxybenzoyl)-benzoic acid hexylester]: the “% damage” value worked out at 0% in experiment [1] (7 DAT, rate 500 g/ha (B alone)) and 0% in experiment [1] (setting [9]).

For the compound `CCCOC(=O)c1cc(O)c(O)c(O)c1` [B.3.29.1, n-propylgallate], the “% damage” value in experiment [1] (5 DAT, rate 1000 g/ha (B alone)) was 0% and 5%; in experiment [1] (11 DAT, rate 1000 g/ha (B alone)) it was 0% and 8%.
